Laboratory results: patent US9776987B2, “Amide derivatives for GPR119 agonist” (CHONG KUN DANG PHARMACEUTICAL CORP., priority 2013, dated 2017)
pEC50: −log10 of the molar value. Converted amounts (≈) assume the structure as drawn. Read-outs that look alike come from different tables or passages of the source.

Tests used:
[1] = molecular target: T1, human GPR119 receptor (Homo sapiens, UniProt Q8TDV5); assay: Activity test for human GPR119 receptor (GeneBLAzer T-Rex GPR 119 CHO-K1 DA cells); format: cell-based; conditions: for pEC50: human GPR119 receptor expressing CHO-K1 cells, 5 hours treatment, read-out: hGPR119 EC50; for activity for human GPR119 receptor (in words): judgement on the EC50 values of Table 11
T1 construct: host or cells: GeneBLAzer T-Rex GPR 119 CHO-K1 DA cells (CHO-K1)
T1 sequence (Q8TDV5 1-335): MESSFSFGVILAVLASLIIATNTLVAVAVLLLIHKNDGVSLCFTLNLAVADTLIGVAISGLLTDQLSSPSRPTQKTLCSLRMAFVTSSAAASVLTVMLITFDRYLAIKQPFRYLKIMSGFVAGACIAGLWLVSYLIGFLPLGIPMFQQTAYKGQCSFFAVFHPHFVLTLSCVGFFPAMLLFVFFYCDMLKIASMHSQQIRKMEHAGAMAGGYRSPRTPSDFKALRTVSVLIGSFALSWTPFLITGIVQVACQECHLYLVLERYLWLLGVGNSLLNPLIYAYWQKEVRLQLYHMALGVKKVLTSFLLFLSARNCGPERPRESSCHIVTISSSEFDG
Description: 1. Human GPR119 Receptor Cell
As a human GPR119 receptor expression cell for this test, the cell line “GeneBLAzer™ T-Rex GPR 119 CHO-K1 DA cells” that is commercially available from Invitrogen, was used. The cell was incubated in the DMEM media containing 1% dialyzed fetal bovine serum etc. The cell incubator was kept at constant temperature and constant humidity of 37° C., 5% CO2.
2. Activity Test for Human GPR119 Receptor
The human GPR119 receptor expressing cell was used to this test. Each of test compounds was added to be final concentrations of 0.1, 1, 10 μM in 96 well and tested in duplicate. A fixed amount of cell was added to each well of 96 well separately, and then treated with the test compound for 5 hours. After treatment of color development agent for 2 hours, the fluorescence value was determined with plate reader. To the luminous wavelength of control well, which was not treated with the sample, but in which only a vehicle […] was contained, the ratio of the luminous wavelength of test well, which was treated with the sample, was calculated, and then converted to obtain EC50 value.
3. Statistical Processing
All the results were expressed as mean±SD, and each test groups and the control group were compared using student's t-test to adjudge the effects of each test groups.

[2] = test system: Male C57/6J Jms mice; assay: Glucose tolerance test in normal mouse; format: in vivo
Description: 1. Method of Glucose Tolerance Test
Male C57/6J Jms mice of 6-7 weeks of age were fasted for 16 hours before the start of glucose tolerance test. […]
Before compound administration, that is, at 0 hour, whole blood glucose level was determined using a Glucometer (ACCU-CHEK, Roche). At 30 minutes after compound administration, whole blood glucose level was determined once again, and 20% glucose (2 g/kg/10 mL) was administered orally. Whole blood glucose level was determined at 20, 40, 60, 80, and 120 minutes after 20% glucose administration. Whole blood glucose level vs. Time was graphicalized. Area under the curve (AUC) of whole blood glucose level was obtained using GraphPad Prism 4.0. The effect of glucose tolerance was adjudged with the corrected area under the curve (cAUC), on which the base value of glucose area under the curve was excluded.

[3] = Solubility test of GPR 119 agonist compounds (Nephelostar); format: physicochemical; conditions: aqueous with cosolvent or surfactant or cyclodextrin, kinetic from dmso stock
Description: 1. Method of Solubility Test
Each test compounds were dissolved in 5% DMSO aqueous solution as a solvent at several concentrations. When a laser was irradiated to the solution, the particles, which are not dissolved in the solvent, scatter the light. The level of the scattered light is dependent to the number of the particles, so the solubility of the test compound in the solution can be determined using the relationship. As the test equipment, Nephelostar was used.

[4] = test system: Glucagon-Like Peptide-1 (GLP-1) secretion; assay: Secretion capacity test of glucagon-like peptide-1 (GLP-1); format: in vivo, mouse; conditions: normal mice, oral, AUC of plasma GLP-1 level, vehicle (water) 100%
Description: 3. Secretion Capacity Test of Glucagon-Like Peptide-1 (GLP-1)
Male C57/6J Jms mice of 6-7 weeks of age were fasted for 16 hours before the start of the test of secretion capacity test of GLP-1. The experimental animal groups consist of: a vehicle group (100% DI water); and test groups administered with each compounds (10 mg/kg). Blood samples were taken from the orbital vein of the test animals. Plasma GLP-1 level was determined using a GLP-1 ELISA kit (Total GLP-1 ELISA, ALPCO). With the base of 30 minutes before the compound administration, each blood samples were taken at 30, 60, 120 and 210 minutes after the compound administration. 30% Glucose solution (3 g/kg/10 mL) was administered orally at 5 minutes before each blood-collecting. From the collected blood, only plasma was taken using a centrifuge (12000 rpm, 15 minutes), and stored at −80° C. before analysis. Plasma GLP-1 level vs. Time was graphicalized. Area under the curve (AUC) of plasma GLP-1 level was obtained using GraphPad Prism 4.0. All the results were expressed as mean±SD, and each test groups and the control group were compared using one-way ANOVA test (Dunnett's test, *p<0.05, **p<0.01, ***p<0.001) to adjudge the effects of each test groups.

[5] = 10 mg/kg, whole blood glucose AUC after oral glucose 2 g/kg, 10 mg/kg
[6] = pH 2, 5% DMSO aqueous solution, read-out: Solubility pH 2
[7] = pH 4, 5% DMSO aqueous solution, read-out: Solubility pH 4
[8] = pH 6, 5% DMSO aqueous solution, read-out: Solubility pH 6
[9] = pH 8, 5% DMSO aqueous solution, read-out: Solubility pH 8
[10] = 10 mg/kg, whole blood glucose AUC after oral glucose 2 g/kg

| Compound | pEC50 [1] | Decrease % of AUC at 10 mg/kg [2, 5] [%] | activity for human GPR119 receptor (in words) [1] | solubility [3, 6] [µg/mL] | solubility [3, 7] [µg/mL] | solubility [3, 8] [µg/mL] | solubility [3, 9] [µg/mL] | GLP-1 secretion (%) at 10 mg/kg of dose [4] [%] | Decrease % of AUC at 2.5 mg/kg ([2]; 2.5 mg/kg) [%] | Decrease % of AUC at 5 mg/kg ([2]; 5 mg/kg) [%] | Decrease % of AUC at 10 mg/kg [2, 10] |
| --- | --- | --- | --- | --- | --- | --- | --- | --- | --- | --- | --- |
| CC(C)(CN1CCC(COc2ccc(-c3ccc(C(=O)N4C[C@H](O)C[C@H]4C(N)=O)c(F)c3)c(F)c2)CC1)C(F)(F)F [Compound 1240, (2S,4R)-1-(2′,3-difluoro-4′-((1-(3,3,3-trifluoro-2,2-dimethylpropyl)piperidin-4-yl)methoxy)biphenylcarbonyl)-4-hydroxypyrrolidin-2-carboxamide] | 10.00 | 35 | – | – | – | – | – | – | – | – | – |
| CCC(F)(CC)CN1CCC(COc2ccc(-c3ccc(C(=O)N4C[C@H](O)C[C@@]4(C)C(N)=O)c(F)c3)nc2)CC1 [Compound 1291, (2S,4R)-1-(4-(5-((1-(2-ethyl-2-fluorobutyl)piperidin-4-yl)methoxy)pyridin-2-yl)-2-fluorobenzoyl)-4-hydroxy-2-methylpyrrolidin-2-carboxamide] | 7.89 | – | excellent activity | > 279 | > 279 | > 279 | 166 (≈ 297 µM) | 347 | 15.7 | 38.0 | – |
| CC(C)c1noc(N2CCC(COc3ccc(-c4ccc(S(C)(=O)=O)cc4)nc3)CC2)n1 [GSK-1292263, reference compound] | – | – | – | – | – | – | – | – | – | – | 10~20% |
| NC(=O)[C@@H]1C[C@@H](O)CN1C(=O)c1ccc(-c2ccc(OCC3CCN(CC4(C(F)(F)F)CCC4)CC3)cc2)cc1 [Compound 1199, (2S,4R)-4-hydroxy-1-(4′-((1-((1-(trifluoromethyl)cyclobutyl)methyl)piperidin-4-yl)methoxy)biphenylcarbonyl)pyrrolidin-2-carboxamide] | 7.92 | 31 | – | – | – | – | – | – | – | – | – |
| CC(C)(F)CN1CCC(COc2ccc(-c3ccc(C(=O)N4CCC[C@@]4(C)C(N)=O)c(F)c3)nc2)CC1 [Compound 1207, (S)-1-(2-fluoro-4-(5-((1-(2-fluoro-2-methylpropyl)piperidin-4-yl)methoxy)pyridin-2-yl)benzoyl)-2-methylpyrrolidin-2-carboxamide] | 10.15 | – | excellent activity | > 257 | > 257 | > 257 | > 257 | 223 | 31.3 | 45.1 | – |
| CC(C)(CN1CCC(COc2ccc(-c3ccc(C(=O)N4C[C@H](O)C[C@H]4C(N)=O)c(F)c3)nc2)CC1)C(F)(F)F [Compound 1268, (2S,4R)-1-(2-fluoro-4-(5-((1-(3,3,3-trifluoro-2,2-dimethylpropyl)piperidin-4-yl)methoxy)pyridin-2-yl)benzoyl)-4-hydroxypyrrolidin-2-carboxamide] | 10.15 | – | excellent activity | > 283 | > 283 | > 283 | 54 (≈ 95.3 µM) | – | – | – | – |
| C[C@@]1(C(N)=O)C[C@@H](O)CN1C(=O)c1ccc(-c2ccc(OCC3CCN(CC4(C(F)(F)F)CCC4)CC3)cn2)cc1F [Compound 1290, (2S,4R)-1-(2-fluoro-4-(5-((1-((1-(trifluoromethyl)cyclobutyl)methyl)piperidin-4-yl)methoxy)pyridin-2-yl)benzoyl)-4-hydroxy-2-methylpyrrolidin-2-carboxamide] | 8.22 | – | excellent activity | > 296 | > 296 | > 296 | 102 (≈ 172 µM) | – | – | – | – |
| NC(=O)[C@@H]1C[C@@H](O)CN1C(=O)c1ccc(-c2ccc(OCC3CCN(CC4(C(F)(F)F)CCC4)CC3)cn2)c(F)c1 [Compound 1286, (2S,4R)-1-(3-fluoro-4-(5-((1-((1-(trifluoromethyl)cyclobutyl)methyl)piperidin-4-yl)methoxy)pyridin-2-yl)benzoyl)-4-hydroxypyrrolidin-2-carboxamide] | 8.52 | – | excellent activity | > 289 | > 289 | > 289 | 108 (≈ 187 µM) | – | – | – | – |
| CC(C)(CN1CCC(COc2ccc(-c3ccc(C(=O)N4C[C@H](O)C[C@H]4C(N)=O)c(F)c3)cn2)CC1)C(F)(F)F [Compound 1208, (2S,4R)-1-(2-fluoro-4-(6-((1-(3,3,3-trifluoro-2,2-dimethylpropyl)piperidin-4-yl)methoxy)pyridin-3-yl)benzoyl)-4-hydroxypyrrolidin-2-carboxamide] | 8.52 | 38 | excellent activity | – | – | – | – | – | – | – | – |
| CCc1cnc(N2CCC(c3nc(COc4ccc(-n5cnnn5)cc4)cs3)CC2)nc1 [MBX-2982, reference compound] | – | – | – | > 208 | 133 (≈ 297 µM) | 61 (≈ 136 µM) | 39 (≈ 86.9 µM) | 114 | 9.5 | 18.5 | 20~30% |
| CC(C)(CN1CCC(COc2ccc(-c3ccc(C(=O)N4C[C@H](O)C[C@H]4C(N)=O)cc3)nc2)CC1)C(F)(F)F [Compound 1322, (2S,4R)-4-hydroxy-1-(4-(5-((1-(3,3,3-trifluoro-2,2-dimethylpropyl)piperidin-4-yl)methoxy)pyridin-2-yl)benzoyl)pyrrolidin-2-carboxamide] | 8.22 | – | excellent activity | > 274 | > 274 | > 274 | 89 (≈ 162 µM) | – | – | – | – |
| CC(C)(CN1CCC(COc2ccc(-c3ccc(C(=O)N4C[C@H](O)C[C@H]4C(N)=O)cc3F)nc2)CC1)C(F)(F)F [Compound 1323, (2S,4R)-1-(3-fluoro-4-(5-((1-(3,3,3-trifluoro-2,2-dimethylpropyl)piperidin-4-yl)methoxy)pyridin-2-yl)benzoyl)-4-hydroxypyrrolidin-2-carboxamide] | 8.40 | – | excellent activity | > 283 | > 283 | 355 (≈ 627 µM) | 88 (≈ 155 µM) | – | – | – | – |
